Results on three molecules are retold here after publication PMC10716780, “The multistep oxidation of cholesterol to pregnenolone by human cytochrome P450 11A1 is highly processive” (The Journal of Biological Chemistry, 2023).

One may read the koff as the first-order rate constant of dissociation. One may read the kon as a measure of how fast the partners come together.

One series concerns bovine P450 11A1. Set-up: method as in PMID 7056749. As to conditions: bovine P450 11A1, within dead time of stopped-flow ref 12; cited from earlier work.
For a further series, the target named is T1, human P450 11A1 (Homo sapiens, UniProt P05108).
T1 construct: M A S T R S P R P F N E I P S P G D N; Met-Ala (N-terminal start residues in place of the transit peptide and Ile40) (N); made in house; host or cells: E. coli C41(DE3) with GroES/GroEL, vector pET23C(+)
T1 sequence (P05108 41-521 limits assumed): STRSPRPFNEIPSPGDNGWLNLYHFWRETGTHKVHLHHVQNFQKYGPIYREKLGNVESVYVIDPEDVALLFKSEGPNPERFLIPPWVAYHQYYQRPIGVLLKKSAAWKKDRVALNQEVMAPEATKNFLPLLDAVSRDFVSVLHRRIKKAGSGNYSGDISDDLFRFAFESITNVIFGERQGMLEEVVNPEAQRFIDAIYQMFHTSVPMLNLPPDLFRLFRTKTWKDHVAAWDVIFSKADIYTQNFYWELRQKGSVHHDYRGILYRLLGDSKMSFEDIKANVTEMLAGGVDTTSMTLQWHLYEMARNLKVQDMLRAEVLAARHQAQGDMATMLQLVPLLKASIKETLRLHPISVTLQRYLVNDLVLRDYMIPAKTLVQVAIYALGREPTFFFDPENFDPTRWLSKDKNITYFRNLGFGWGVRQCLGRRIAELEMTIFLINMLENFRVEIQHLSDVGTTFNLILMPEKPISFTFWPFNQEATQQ
In words: Stopped-flow ketoconazole trap, koff and binding rate measurements. As to conditions: for koff: read-out: koff of P450-sterol complex, 2 μM P450 11A1 + 2 μM steroid mixed with 20 μM ketoconazole, 23 °C, without Adx. How it is done: Interaction of the azole nitrogen atom with the P450 heme produces a bathochromic (“type II”) spectral shift (to ∼430 nm)—an inverse effect of the binding of substrate.
Measurement of kon rate(s) was not performed because the sterols are delivered in a solution of HPCD, from which the dissociation rate is not known.
Determinations of koff rates were performed as previously described ([33]).

The target in the next series is T2, P450 11A1 (CYP11A1) (Homo sapiens, UniProt P05108).
T2 construct: M A S T R S P R P F N E I P S P G D N; Met-Ala (N-terminal start residues in place of the transit peptide and Ile40) (N); made in house; host or cells: E. coli (P450 11A1 in C41(DE3); Adx and AdR in E. coli)
T2 sequence (P05108 41-521 limits assumed): T1 sequence (P05108 41-521 limits assumed)
T2 sequence (P00257 59-186 partner): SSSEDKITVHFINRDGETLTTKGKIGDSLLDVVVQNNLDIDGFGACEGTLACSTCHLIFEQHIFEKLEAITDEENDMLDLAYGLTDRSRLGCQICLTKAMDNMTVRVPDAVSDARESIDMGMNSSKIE
In words: Kinetic isotope effect assay, disappearance of d0- and d3-cholesterol under single-turnover conditions. It counts as biochemical. As to conditions: human, pH 7.4; 5 μM P450, 5 μM sterol, low Adx single-turnover; read-out: sterol half-life (t1/2) (converted). Here is the method: P450 11A1 incubations were performed under (low Adx) single-turnover conditions (5 μM P450, 5 μM cholesterol; see Experimental procedures) with d0- (authentic, unlabeled) and d3-cholesterol, and the disappearance of each was monitored by LC-atmospheric pressure chemical ionization-MS (m/z 369.3516 and 372.3705, respectively). In theory, if C-H bond breaking were rate-limiting in the initial hydroxylation then the rate of d3-cholesterol consumption would be slower relative to the d0 compound due to the increased strength of a C-D bond.
The kinetic isotope experiment was designed similarly to the benchtop experiment described above, but with some modifications. P450 11A1 (5 μM) was reconstituted with the redox partners AdR (10 μM) and Adx (5 μM) on ice (10 min) prior to dilution in potassium Hepes (50 mM, pH 7.4) and H2O and addition of d3-cholesterol substrate (5 μM). […]
Samples (held at 4 °C) were injected (10 μl) using a Waters Acquity UPLC system on a Acquity BEH octadecylsilane (C18) 2.1 mm × 50 mm (1.7 μm) UPLC column (held at 25 °C) with a flow rate of 0.5 ml min^−1 using an isocratic mobile phase of CH3CN (only). The column eluate was subjected to atmospheric pressure chemical ionization and analyzed using a Thermo Fisher Scientific LTQ XL Orbitrap mass spectrometer instrument operating in positive mode, scanning from m/z 100 to 500, with a resolution setting of 120,000. […]

With `CC(C)CC[C@@H](O)[C@](C)(O)[C@H]1CC[C@H]2[C@@H]3CC=C4C[C@@H](O)CC[C@]4(C)[C@H]3CC[C@]12C` [20R,22R-(OH)2 Chol, (20R,22R)-Cholest-5-ene-3β,20,22-triol], the “rates of binding and dissociation” value with bovine P450 11A1 was above 300 s⁻¹.
Turning to `CC(C)CC[C@@H](O)[C@@H](C)[C@H]1CC[C@H]2[C@@H]3CC=C4C[C@@H](O)CC[C@]4(C)[C@H]3CC[C@]12C` [22R-OH Chol, 22R-hydroxycholesterol], the “koff of P450-sterol complex” value at human P450 11A1 (2 μM P450 11A1 + 2 μM steroid mixed with 20 μM ketoconazole, 23 °C, without Adx) worked out at 0.044 ± 0.001 s⁻¹. Moreover, the koff on human P450 11A1 was found to be 0.04 s⁻¹.
`CC(C)CCC[C@@H](C)[C@H]1CC[C@H]2[C@@H]3CC=C4C[C@@H](O)CC[C@]4(C)[C@H]3CC[C@]12C` [Cholesterol] had an observed binding rate on human P450 11A1 (20 μM final concentration, in HPCD) of 0.05 s⁻¹. The “apparent kon slower than kon of ketoconazole to unliganded P450” value on human P450 11A1 (in the presence of HPCD) was above 200 fold. For the same molecule, at human P450 11A1 (read-out: apparent kon), the kon came to 2500 M⁻¹ s⁻¹. For the same molecule, the koff on human P450 11A1 came out at 0.24 ± 0.01 s⁻¹. The half-life at 5 μM on P450 11A1 (CYP11A1) is 20 s. The “rates of binding and dissociation” value in the series on bovine P450 11A1 was above 300 s⁻¹.
